Source: patent US20250127807A1, “TREATMENT OF VAGINAL DYSBIOTIC CONDITIONS WITH ASSOCIATED ELEVATED VAGINAL CALPROTECTIN” (priority 2022, published 2025)

Legend:
[1] = Modeling of Mn and Zn levels in vaginal fluid delivered from slow release Z2 formulation; parameters: species or system women
Procedure: Six women each received 3 doses of formulation Z2 separated by 48 hours. Vaginal fluid swabs were collected at t=0, 2, 4, 8, 12, 18, 24, 30, 36, and 42 hours post dose and vaginal fluid concentrations of lactoferrin and mannitol were determined. Average concentrations for the combined 18 dose administrations were obtained based on calculation of Area Under Curve for the locally estimated scatterplot smoothing (Loess) profile of lactoferrin and mannitol concentrations assuming 6 mL volume of distribution.

[2] = parameters: species or system women; conditions: female, human, in vivo
Procedure: Elevated levels of calprotectin in BV and in L iners-dominated vaginal microbiomes sequester manganese and zinc, preventing growth of L crispatus its maintenance of a healthy vaginal microbiome. […] Six women each received 3 doses of formulation Z2 separated by 48 hours. Vaginal fluid swabs were collected at t=0, 2, 4, 8, 12, 18, 24, 30, 36, and 42 hours post dose and vaginal fluid concentrations of lactoferrin and mannitol were determined. Average concentrations for the combined 18 dose administrations were obtained based on calculation of Area Under Curve for the locally estimated scatterplot smoothing (Loess) profile of lactoferrin and mannitol concentrations assuming 6 mL volume of distribution. The average concentration of lactoferrin was 33 mg/mL and the average concentrations of mannitol was 20 mg/mL. Average concentrations of both substances correspond to 0.1 fraction or 10% of the administered dose, 300 mg lactoferrin and 195 mg mannitol per Z2 tablet respectively. The 0.1 factor was used to estimate the expected average elemental Mn concentration based on the initial dose per tablet.

For `[Zn]` [Zn, zinc], the “predicted Cmax, fold below the concentration of Zn used in MRS media” value ([1]; 250 μg dose of Zn) was ~5 fold and the “predicted Cmax, fold above the amount of Zn that could be bound by calprotectin in BV” value ([1]; 250 μg dose of Zn, 95% CI of median based on 2:1 Zn/CP) was ~4 fold.

For `OC[C@@H](O)[C@@H](O)[C@H](O)[C@H](O)CO` [mannitol, reference compound], the “average concentration as fraction of the administered dose” value [2] was 10%.

For `[Mn+2]` [Mn, manganese], the “predicted Cmax, fold below the concentration of Mn used in MRS media” value ([1]; 50 μg dose of Mn) was ~2 fold and the “predicted Cmax, fold above the amount of Mn that could be bound by calprotectin in BV” value ([1]; 50 μg dose of Mn, 95% CI of median 70 M based on 1:1 Mn/CP) was ~2 fold.
